Measured values from patent publication US8551999B2, “Heterocyclic compound and pharmaceutical composition thereof” (Otsuka Pharmaceutical Co., Ltd., priority 2007, dated 2013).

First: Br.Cn1c(C(=O)N2CCN(Cc3ccc4c(c3)OCO4)CC2)cc2cc(Oc3ccc(NCc4ccc(Cl)c(Cl)c4)cn3)ccc21 [Example 333, (4-Benzo[1,3]dioxol-5-ylmethylpiperazin-1-yl)(5-{5-[(3,4-di-chlorophenyl)methylamino]pyridin-2-yloxy}-1-methyl-1H-indol-2-yl)methanone hydrobromide]
Second: Br.CCOc1cccc(CN2CCN(C(=O)c3cc4cc(Oc5ccc(NC(=O)c6ccc(Cl)c(Cl)c6)cn5)ccc4n3C)CC2)c1 [Example 373, 3,4-Dichloro-N-(6-{2-[4-(3-ethoxybenzyl)piperazine-1-carbonyl]-1-methyl-1H-indol-5-yloxy}pyridin-3-yl)benzamide hydrobromide]
The melting point of the first is lower: 205 to 214 °C for the first, 225 to 227 °C for the second.

First: COc1ccc(CN2CCN(C(=O)c3cc4cc(Oc5cc(C)c(NC(=O)c6ccc(C(F)(F)F)cc6)cn5)ccc4n3C)CC2)cc1.O=C(O)C(=O)O [Example 433, N-(6-{2-[4-(4-Methoxybenzyl)piperazine-1-carbonyl]-1-methyl-1H-indol-5-yloxy}-4-methylpyridin-3-yl)-4-trifluoromethylbenzamide oxalate]
Second: COc1ccc(CN2CCN(C(=O)c3cc4cc(Oc5ccc(NC(=O)c6ccc(C(F)(F)F)cc6)cn5)ccc4n3C)CC2)cn1.O=C(O)/C=C\C(=O)O [Example 348, N-(6-{2-[4-(6-Methoxypyridin-3-ylmethyl)piperazine-1-carbonyl]-1-methyl-1H-indol-5-yloxy}pyridin-3-yl)-4-trifluoromethylbenzamide maleate]
The melting point of the first is higher: 144 to 147 °C for the first, 135 to 138 °C for the second.

First: CCOc1cccc(CN2CCN(C(=O)c3cc4cc(Oc5ccc(N(C)C(=O)c6ccc(Cl)c(Cl)c6)cn5)ccc4n3C)CC2)c1.O=C(O)/C=C\C(=O)O [Example 374, 3,4-Dichloro-N-(6-{2-[4-(3-ethoxybenzyl)piperazine-1-carbonyl]-1-methyl-1H-indol-5-yloxy}pyridin-3-yl)-N-methylbenzamide maleate]
Second: Br.CN(C(=O)c1ccc(Cl)c(Cl)c1)c1ccc(Oc2ccc3cc(C(=O)N4CCN(Cc5ccc(OCCF)cc5)CC4)n(C)c3c2)nc1 [Example 482, 3,4-Dichloro-N-[6-(2-{4-[4-(2-fluoroethoxy)benzyl]piperazine-1-carbonyl}-1-methyl-1H-indol-6-yloxy)pyridin-3-yl]-N-methyl-benzamide hydrobromide]
The melting point of the first is lower: 99 to 100 °C for the first, 186.9 to 188.8 °C for the second.

Compared with `CC(C)CCOc1ccc(CN2CCN(C(=O)c3cc4ccc(Oc5ccc(N(C)S(=O)(=O)c6ccc(Cl)c(Cl)c6)cn5)cc4n3C)CC2)cc1` [Example 516, 3,4-Dichloro-N-methyl-N-[6-(1-methyl-2-{4-[4-(3-methylbutoxy)-benzyl]piperazine-1-carbonyl}-1H-indol-6-yloxy)pyridin-3-yl]-benzenesulfonamide], `Cc1ccc(S(=O)(=O)N(C)c2ccc(Oc3ccc4cc(C(=O)N5CCN(Cc6ccc(OCC7CC7)cc6)CC5)n(C)c4c3)nc2)cc1` [Example 530, N-(6-{2-[4-(4-Cyclopropylmethoxybenzyl)piperazine-1-carbonyl]-1-methyl-1H-indol-6-yloxy}pyridin-3-yl)-4,N-dimethylbenzene-sulfonamide] is lower in melting point: 145.9 to 147.1 °C for the first, 135.6 to 138.6 °C for the second.

Compared with `COc1ccccc1CN1CCN(C(=O)c2cc3cc(Oc4ccc(N(C)C(=O)c5ccc(C(F)(F)F)cc5)cn4)ccc3n2C)CC1.O=C(O)C(=O)O` [Example 355, N-(6-{2-[4-(2-Methoxybenzyl)piperazine-1-carbonyl]-1-methyl-1H-indol-5-yloxy}pyridin-3-yl)-N-methyl-4-trifluoromethylbenzamide oxalate], `Br.CN(C(=O)c1ccc(C(F)(F)F)cc1)c1ccc(Oc2ccc3c(c2)cc(C(=O)N2CCN(Cc4ccc(OC(F)(F)F)cc4)CC2)n3C)nc1` [Example 343, N-Methyl-N-(6-{1-methyl-2-[4-(4-trifluoromethoxybenzyl)-piperazine-1-carbonyl]-1H-indol-5-yloxy}pyridin-3-yl)-4-tri-fluoromethylbenzamide hydrobromide] is higher in melting point: 140 to 142 °C for the first, 213 to 216 °C for the second.

Compared with `O=C(CN1CCc2cc(Oc3ccc(NS(=O)(=O)c4ccc(Cl)c(Cl)c4)cn3)ccc21)N1CCN(Cc2ccc3c(c2)OCO3)CC1` [Example 64, N-(6-{1-[2-(4-Benzo[1,3]dioxol-5-ylmethylpiperazin-1-yl)-2-oxo-ethyl]-2,3-dihydro-1H-indol-5-yloxy}pyridin-3-yl)-3,4-dichloro-benzenesulfonamide], `Br.Cn1c(C(=O)N2CCN(Cc3ccc(C#N)cc3)CC2)cc2ccc(Oc3ccc(NC(=O)c4ccc(Cl)c(Cl)c4)cn3)cc21` [Example 263, 3,4-Dichloro-N-(6-{2-[4-(4-cyanobenzyl)piperazine-1-carbonyl]-1-methyl-1H-indol-6-yloxy}pyridin-3-yl)benzamide hydrobromide] is higher in melting point: 152 to 153 °C for the first, 263.9 to 267.4 °C for the second.

Compared with `Br.CCOc1ccc(CN2CCN(C(=O)c3cc4cc(Oc5ccc(NC(=O)c6ccc(C(F)(F)F)cc6)cn5)ccc4n3C)CC2)cc1` [Example 363, N-(6-{2-[4-(4-Ethoxybenzyl)piperazine-1-carbonyl]-1-methyl-1H-indol-5-yloxy}pyridin-3-yl)-4-trifluoromethylbenzamide hydrobromide], `Br.COc1ccc(CN2CCN(C(=O)c3cc4cc(Oc5ccc(NC(=O)c6ccc(OC(F)(F)F)cc6)cn5)ccc4n3C)CC2)cc1` [Example 17, N-(6-{2-[4-(4-Methoxybenzyl)piperazine-1-carbonyl]-1-methyl-1H-indol-5-yloxy}pyridin-3-yl)-4-trifluoromethoxybenzamide hydrobromide] is lower in melting point: 231 to 234 °C for the first, 226 to 227 °C for the second.

First: Br.Cn1c(C(=O)N2CCN(Cc3ccc(OCCF)cc3)CC2)cc2ccc(Oc3ccc(NC(=O)c4ccc(Cl)c(Cl)c4)cn3)cc21 [Example 464, 3,4-Dichloro-N-[6-(2-{4-[4-(2-fluoroethoxy)benzyl]piperazine-1-carbonyl}-1-methyl-1H-indol-6-yloxy)pyridin-3-yl]benzamide hydrobromide]
Second: Br.CC(C)Cc1ccc(CN2CCN(C(=O)c3cc4ccc(Oc5ccc(NC(=O)c6ccc(Cl)c(Cl)c6)cn5)cc4n3C)CC2)cc1 [Example 260, 3,4-Dichloro-N-(6-{2-[4-(4-isobutylbenzyl)piperazine-1-carbonyl]-1-methyl-1H-indol-6-yloxy}pyridin-3-yl)benzamide hydrobromide]
The melting point of the first is lower: 232.4 to 234.2 °C for the first, 255.8 to 257.4 °C for the second.

Compared with `COc1ccc(CN2CCN(C(=O)c3cc4cc(Oc5ccc(NC(=O)c6ccc(-n7cccc7)nc6)cn5)ccc4n3C)CC2)cc1` [Example 226, N-(6-{2-[4-(4-Methoxybenzyl)piperazine-1-carbonyl]-1-methyl-1H-indol-5-yloxy}pyridin-3-yl)-6-pyrrol-1-ylnicotinamide], `Br.COc1ccc(CN2CCN(C(=O)c3cc4cc(Oc5ccc(NC(=O)c6ccc(C(F)(F)F)cc6Cl)cn5)ccc4n3C)CC2)cc1` [Example 231, 2-Chloro-N-(6-{2-[4-(4-methoxybenzyl)piperazine-1-carbonyl]-1-methyl-1H-indol-5-yloxy}pyridin-3-yl)-4-trifluoromethylbenzamide hydrobromide] is higher in melting point: 194 to 195 °C for the first, 239 to 241 °C for the second.

First: Br.CCOc1ccc(CN2CCN(C(=O)c3cc4c(C)c(Oc5ccc(N(C)C(=O)c6ccc(C(F)(F)F)cc6)cn5)ccc4n3C)CC2)cc1 [Example 427, N-(6-{2-[4-(4-Ethoxybenzyl)piperazine-1-carbonyl]-1,4-dimethyl-1H-indol-5-yloxy}pyridin-3-yl)-N-methyl-4-trifluoromethyl-benzamide hydrobromide]
Second: Br.CN(C(=O)c1ccc(C(F)(F)F)cc1)c1ccc(Oc2ccc3cc(C(=O)N4CCN(Cc5ccc(OC(F)(F)C(F)F)cc5)CC4)n(C)c3c2)nc1 [Example 443, N-Methyl-N-[6-(1-methyl-2-{4-[4-(1,1,2,2-tetrafluoroethoxy)-benzyl]piperazine-1-carbonyl}-1H-indol-6-yloxy)pyridin-3-yl]-4-trifluoromethylbenzamide hydrobromide]
The melting point of the first is lower: 224 to 226 °C for the first, 245.4 to 247.6 °C for the second.

First: Br.CN(C(=O)c1ccc(C(F)(F)F)cc1Cl)c1ccc(Oc2ccc3cc(C(=O)N4CCN(Cc5ccc(OCCF)cc5)CC4)n(C)c3c2)nc1 [Example 447, 2-Chloro-N-[6-(2-{4-[4-(2-fluoroethoxy)benzyl]piperazine-1-carbonyl}-1-methyl-1H-indol-6-yloxy)pyridin-3-yl]-N-methyl-4-tri-fluoromethylbenzamide hydrobromide]
Second: Br.CN(C(=O)c1ccc(Cl)c(Cl)c1)c1ccc(Oc2ccc3cc(C(=O)N4CCN(Cc5ccc(OC(F)F)cc5)CC4)n(C)c3c2)nc1 [Example 488, 3,4-Dichloro-N-(6-{2-[4-(4-difluoromethoxybenzyl)piperazine-1-carbonyl]-1-methyl-1H-indol-6-yloxy}pyridin-3-yl)-N-methyl-benzamide hydrobromide]
The melting point of the first is higher: 223.6 to 225.4 °C for the first, 185.6 to 189.3 °C for the second.

First: Br.Br.Cn1c(C(=O)N2CCN(Cc3cccnc3)CC2)cc2cc(Oc3ccc(NC(=O)c4ccc(C(F)(F)F)cc4)cn3)ccc21 [Example 558, N-{6-[1-Methyl-2-(4-pyridin-3-ylmethylpiperazine-1-carbonyl)-1H-indol-5-yloxy]pyridin-3-yl}-4-trifluoromethylbenzamide dihydrobromide]
Second: CN(c1ccc(Oc2ccc3c(c2)cc(C(=O)N2CCN(Cc4ccc(OCC(F)(F)F)cc4)CC2)n3C)nc1)S(=O)(=O)c1ccc(C(F)(F)F)cc1 [Example 527, N-Methyl-N-[6-(1-methyl-2-{4-[4-(2,2,2-trifluoroethoxy)benzyl]-piperazine-1-carbonyl}-1H-indol-5-yloxy)pyridin-3-yl]-4-tri-fluoromethylbenzenesulfonamide]
The melting point of the first is higher: 201 to 204 °C for the first, 191.8 to 194.4 °C for the second.

With `Cc1ccc(S(=O)(=O)N(C)c2ccc(Oc3ccc4c(c3)cc(C(=O)N3CCN(Cc5ccc(OCC(F)(F)F)cc5)CC3)n4C)nc2)cc1.Cl` the melting point was 239.1 to 239.8 °C.

With `Br.Cn1c(C(=O)N2CCN(Cc3ccc(C#N)cc3)CC2)cc2cc(Oc3ccc(NC(=O)c4ccc(Cl)c(Cl)c4)cn3)ccc21` [Example 556, 3,4-Dichloro-N-(6-{2-[4-(4-cyanobenzyl)piperazine-1-carbonyl]-1-methyl-1H-indol-5-yloxy}pyridin-3-yl)benzamide hydrobromide] the melting point was 267 to 272 °C (dec.).
